Measured values reported in patent US11479551B2, “MTA-cooperative PRMT5 inhibitors” (Mirati Therapeutics, Inc., priority 2019, dated 2022).
pIC50: −log10 of the molar value. Like-named read-outs stand apart in the source and are kept apart here.

Tests used:
[1] = system: PRMT5-dependent Symmetric Di-methyl Arginine signal in HCT116 parental cells; assay: SYM11 In-Cell Western, HCT116 parental; assay type: cell-based; conditions: 4 days of treatment, SYM11/DRAQ5 ratio
Procedure: (§1) Control samples were analyzed in parallel.
Briefly, on Day 0, 2,000 HCT116 parental or HCT116 homozygous MTAP knockout cells were seeded in 96 well plates in McCoy's 5A supplemented with 10% fetal bovine serum and pen/strep and the cells were incubated overnight at 37° C. plus 5% CO2. The following day, cells were treated with DMSO vehicle control or a dose response of PRMT5 inhibitors, and incubated at 37° C. plus 5% CO^2 for four days.
After 4 days of treatment, the cells were fixed by adding 50 μl of 4% paraformaldehyde solution to each well and the cells were incubated for 20 min at room temperature. The paraformaldehyde solution was removed, 150 μl of ice-cold methanol was added and the plate was placed −20° C. for 10 minutes. The methanol was removed, 150 μl of Odyssey Blocking buffer+0.05% Tween20 was added and the plate was incubated at room temperature with shaking for one hour.
The primary SYM11 antibody solution was removed by aspiration and the wells were washed three consecutive times with phosphate buffered saline containing 0.1% Tween-20 (PBST).
The secondary antibody solution was removed by aspiration and the wells were washed three consecutive times with PB ST.
The SYM11 signal and the DRAQ5 signal were quantified using a Li-Cor Odyssey machine reading at […], respectively. The SYM11/DRAQ5 ratio was used to calculate the inhibition of Symmetric Dimethyl Arginine as percent of DMSO control.

[2] = molecular target: T1, PRMT5/MEP50 complex (Homo sapiens (Human), UniProt O14744); assay: PRMT5:MEP50 HotSpot Assay (full-length histone H2A substrate, plus and minus MTA); assay type: biochemical; conditions: in the presence of 2 μM MTA
Method in brief: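 Tritium incorporated into recombinant full-length histone H2A was counted by scintillation after stopped reactions were captured on filter paper.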

[3] = system: HCT116 parental cells; assay: Proliferation assay (CellTiter-Glo, 10 days of treatment), HCT116 parental; assay type: cell-based
Procedure: as §1
Briefly, on Day 0, 250 HCT116 parental or HCT116 homozygous MTAP knockout cell were seeded in 96 well plates in McCoy's 5A supplemented with 10% fetal bovine serum and pen/strep and the cells were incubated overnight at 37° C. plus 5% CO2.
The following day, cells were treated with DMSO vehicle control or a dose response of PRMT5 inhibitors and incubated at 37 C plus 5% CO2 for five days. On Day 6, the cells were trypsinized and split 1:10 into new 96-well plates with fresh medium containing the same concentration of PRMT5 inhibitor and incubated for an additional 5 days at 37° C. plus 5% CO^2.
On Day 11, the viability of the cells was measured using a CTG assay kit (CellTiter-Glo; Promega cat.no G7573) in accordance with the manufacturer's instructions. The IC50 values for each compound after 10 days of treatment were calculated using GraphPad PRISM software.

[4] = system: HCT116 homozygous MTAP knockout cells; assay: Proliferation assay (CellTiter-Glo, 10 days of treatment), HCT116 MTAP knockout; assay type: cell-based; conditions: read-out: Proliferation HCT116MTAP_KO IC50
Method in brief: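 Viability of the CRISPR/Cas9 homozygous MTAP-knockout HCT116 line was read by CellTiter-Glo after 10 days of PRMT5 inhibitor exposure, with IC50 derived from the dose response. Compound was given the day after seeding and renewed at an identical concentration when cells were split 1:10 on day 6.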

[5] = system: PRMT5-dependent Symmetric Di-methyl Arginine signal in HCT116 homozygous MTAP knockout cells; assay: SYM11 In-Cell Western, HCT116 MTAP knockout; assay type: cell-based; conditions: HCT116 homozygous MTAP knockout cells, 4 days of treatment, SYM11/DRAQ5 ratio, read-out: In-cell-Western (SYM11) HCT116 MTAP_KO IC50
[6] = molecular target: T1, PRMT5/MEP50 complex; assay: PRMT5:MEP50 FlashPlate Assay (histone H4 peptide substrate, plus and minus MTA); assay type: biochemical
Procedure: The PRMT5 inhibitory activity of compounds of the present invention was determined using either a PRMT5:MEP50 FlashPlate Assay (Reaction Biology Corporation) or a PRMT5:MEP50 HotSpot Assay (Reaction Biology Corporation).
1. PRMT5:MEP50 FlashPlate Assay

T1 sequence (O14744 2-637): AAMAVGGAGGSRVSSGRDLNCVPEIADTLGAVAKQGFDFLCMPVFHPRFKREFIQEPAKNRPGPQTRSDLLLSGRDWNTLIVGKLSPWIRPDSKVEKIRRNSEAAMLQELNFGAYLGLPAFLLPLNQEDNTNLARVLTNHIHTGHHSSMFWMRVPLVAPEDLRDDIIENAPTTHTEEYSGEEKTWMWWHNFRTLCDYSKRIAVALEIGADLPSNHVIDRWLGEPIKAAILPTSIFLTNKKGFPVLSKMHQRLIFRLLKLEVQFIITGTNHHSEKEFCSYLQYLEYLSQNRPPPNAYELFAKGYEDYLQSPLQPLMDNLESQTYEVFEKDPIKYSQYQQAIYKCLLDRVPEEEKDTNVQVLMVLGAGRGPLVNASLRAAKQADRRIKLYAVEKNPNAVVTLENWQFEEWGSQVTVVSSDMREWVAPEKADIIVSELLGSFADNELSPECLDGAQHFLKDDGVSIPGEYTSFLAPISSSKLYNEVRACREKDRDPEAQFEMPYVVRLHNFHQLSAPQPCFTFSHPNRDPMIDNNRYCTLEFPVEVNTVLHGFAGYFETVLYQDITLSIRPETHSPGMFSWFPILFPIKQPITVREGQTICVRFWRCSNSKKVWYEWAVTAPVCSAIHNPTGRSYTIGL
T1 sequence (Q9BQA1 2-342 partner): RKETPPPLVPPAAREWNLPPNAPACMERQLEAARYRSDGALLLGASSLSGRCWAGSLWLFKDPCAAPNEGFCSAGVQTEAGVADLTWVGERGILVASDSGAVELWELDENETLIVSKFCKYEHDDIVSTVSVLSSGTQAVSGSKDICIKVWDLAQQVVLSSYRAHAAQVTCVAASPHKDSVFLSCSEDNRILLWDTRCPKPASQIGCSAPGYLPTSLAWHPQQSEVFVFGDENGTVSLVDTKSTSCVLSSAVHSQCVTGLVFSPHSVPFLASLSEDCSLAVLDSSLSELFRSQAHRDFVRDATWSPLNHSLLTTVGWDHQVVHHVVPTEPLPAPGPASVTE

| Structure (SMILES) | pIC50 [1] | pIC50 ([2]; read-out: IC50 + 2 μM MTA) | pIC50 [3] | pIC50 [4] | pIC50 [5] | pIC50 ([1]; Homo sapiens, HCT-116, 96 h) | IC50 ([6]; IC50 + 2 μM MTA (nM), in the presence of 2 μM MTA) [nM] | pIC50 ([6]; in the absence of MTA, read-out: IC50) | pIC50 ([3]; Homo sapiens, HCT-116, 240 h) | pIC50 ([4]; Homo sapiens, HCT-116, 240 h) | pIC50 ([5]; Homo sapiens, HCT-116, 96 h) | pIC50 ([2]; IC50 + 2 μM MTA) |
| --- | --- | --- | --- | --- | --- | --- | --- | --- | --- | --- | --- | --- |
| Cn1ncc(-c2ccc3c(=O)[nH]nc(CN)c3c2)c1-c1c(F)cc2ccccc2c1C#N (single isomer, unassigned) [Example 16-2] | < 6.00 | 6.95 | 5.23 | 6.65 | 7.14 |  |  |  |  |  |  |  |
| NCc1n[nH]c(=O)c2ccc(-c3cncc(Oc4cccc(Cl)c4)c3)cc12 [Example 4-67, 4-(aminomethyl)-6-(5-(3-chlorophenoxy)pyridin-3-yl)phthalazin-1(2H)-one] |  |  |  |  |  | 5.00 | 4 | 6.69 | 5.11 | 5.69 | 6.02 |  |
| Cc1cc(C#N)c(-c2c(-c3ccc4c(=O)[nH]nc(CN)c4c3)cnn2C)cc1Cl [Example 4-127, 2-(4-(4-(aminomethyl)-1-oxo-1,2-dihydrophthalazin-6-yl)-1-methyl-1H-pyrazol-5-yl)-4-chloro-5-methylbenzonitrile] |  |  |  |  |  | 5.23 |  |  | < 5.00 | 6.21 | 7.60 | 5.60 |
| Cn1ncc(-c2ccc3c(=O)[nH]nc(CN)c3c2)c1-c1cc2ccccc2cc1C#N [Example 4-128, 3-(4-(4-(aminomethyl)-1-oxo-1,2-dihydrophthalazin-6-yl)-1-methyl-1H-pyrazol-5-yl)-2-naphthonitrile] |  |  |  |  |  | 5.40 |  |  | 5.02 | 6.37 | 7.41 | 5.88 |
| COc1cc(C#N)c(-c2c(-c3ccc4c(=O)[nH]nc(CN)c4c3)cnn2C)cc1OC [Example 4-129, 2-(4-(4-(aminomethyl)-1-oxo-1,2-dihydrophthalazin-6-yl)-1-methyl-1H-pyrazol-5-yl)-4,5-dimethoxybenzonitrile] |  |  |  |  |  | < 5.00 |  |  | < 5.00 | 5.87 | 6.42 | 5.78 |
| Cn1ncc(-c2ccc3c(=O)[nH]nc(CN)c3c2)c1-c1cc(C(F)(F)F)cc(OC2CC2)c1C#N [Example 4-209, 2-(4-(4-(aminomethyl)-1-oxo-1,2-dihydrophthalazin-6-yl)-1-methyl-1H-pyrazol-5-yl)-6-cyclopropoxy-4-(trifluoromethyl)benzonitrile] |  |  |  |  |  | < 6.00 |  |  | 5.33 | 7.23 | 8.00 |  |
| Cn1ncc(-c2ccc3c(=O)[nH]nc(CN)c3c2)c1-c1cc(C#N)c2ccccc2c1F [Example 4-210, 3-(4-(4-(aminomethyl)-1-oxo-1,2-dihydrophthalazin-6-yl)-1-methyl-1H-pyrazol-5-yl)-4-fluoro-1-naphthonitrile] |  |  |  |  |  | < 6.00 |  |  | 5.86 | 6.38 | 8.10 |  |
| Cn1ncc(-c2ccc3c(=O)[nH]nc(CN)c3c2)c1-c1c(Cl)cc2ccccc2c1C#N [Example 4-215, 2-(4-(4-(aminomethyl)-1-oxo-1,2-dihydrophthalazin-6-yl)-1-methyl-1H-pyrazol-5-yl)-3-chloro-1-naphthonitrile] |  |  |  |  |  | < 6.00 |  |  | 5.45 | 7.09 | 7.47 |  |
| Cn1ncc(-c2ccc3c(=O)[nH]nc(CN)c3c2)c1-c1ccc2ccc(F)cc2c1C#N [Example 4-217, 2-(4-(4-(aminomethyl)-1-oxo-1,2-dihydrophthalazin-6-yl)-1-methyl-1H-pyrazol-5-yl)-7-fluoro-1-naphthonitrile] |  |  |  |  |  | < 6.00 |  |  | 5.67 | 7.02 | 7.06 |  |
| Cn1ncc(-c2ccc3c(=O)[nH]nc(CN)c3c2)c1-c1ccc2c(F)cccc2c1C#N [Example 4-223, 2-(4-(4-(aminomethyl)-1-oxo-1,2-dihydrophthalazin-6-yl)-1-methyl-1H-pyrazol-5-yl)-5-fluoro-1-naphthonitrile] |  |  |  |  |  | 6.12 |  |  | 5.11 | 7.12 | 7.92 |  |
| Cn1ncc(-c2ccc3c(=O)[nH]nc(CN)c3c2)c1-c1cc(F)c2ccccc2c1C#N [Example 4-224, 2-(4-(4-(aminomethyl)-1-oxo-1,2-dihydrophthalazin-6-yl)-1-methyl-1H-pyrazol-5-yl)-4-fluoro-1-naphthonitrile] |  |  |  |  |  | < 6.00 |  |  | 5.11 | 6.38 | 8.00 |  |
| Cn1ncc(-c2ccc3c(=O)[nH]nc(CN)c3c2)c1-c1ccc2ncc(Cl)cc2c1C#N [Example 4-225, 6-[4-[4-(aminomethyl)-1-oxo-2H-phthalazin-6-yl]-2-methyl-pyrazol-3-yl]-3-chloro-quinoline-5-carbonitrile] |  |  |  |  |  | < 6.00 |  |  | 5.29 | 7.08 | 7.77 |  |
| Cn1ncc(-c2ccc3c(=O)[nH]nc(CN)c3c2)c1-c1c(C#N)cc2ccccc2c1Cl [Example 4-229, 3-(4-(4-(aminomethyl)-1-oxo-1,2-dihydrophthalazin-6-yl)-1-methyl-1H-pyrazol-5-yl)-4-chloro-2-naphthonitrile] |  |  |  |  |  | < 6.00 |  |  | 5.54 | 7.23 | 7.96 |  |
| Cn1ncc(-c2ccc3c(=O)[nH]nc(CN)c3c2)c1-c1cc2ccccc2c(OC2CC2)c1C#N [Example 4-231, 3-(4-(4-(aminomethyl)-1-oxo-1,2-dihydrophthalazin-6-yl)-1-methyl-1H-pyrazol-5-yl)-1-cyclopropoxy-2-naphthonitrile] |  |  |  |  |  | < 6.00 |  |  | 5.51 | 7.30 | 7.43 |  |
| Cc1cc(OC2CC2)c(C#N)c(-c2c(-c3ccc4c(=O)[nH]nc(CN)c4c3)cnn2C)c1F [Example 4-241, 2-(4-(4-(aminomethyl)-1-oxo-1,2-dihydrophthalazin-6-yl)-1-methyl-1H-pyrazol-5-yl)-6-cyclopropoxy-3-fluoro-4-methylbenzonitrile] |  |  |  |  |  | < 6.00 |  |  | 5.62 | 7.29 | 7.85 |  |
| Cn1ncc(-c2cc(Cl)c3c(=O)[nH]nc(CN)c3c2)c1-c1cc(Cl)cc(OC2CC2)c1C#N [Example 10-16, 2-(4-(4-(aminomethyl)-8-chloro-1-oxo-1,2-dihydrophthalazin-6-yl)-1-methyl-1H-pyrazol-5-yl)-4-chloro-6-cyclopropoxybenzonitrile] |  |  |  |  |  | 7.07 |  |  | 5.75 | 7.07 | 7.32 |  |
| Cc1cc(-c2c(-c3ccc4c(=O)[nH]nc(CN)c4c3)cnn2C)c(C#N)c2ccccc12 [Example 12-10, 2-(4-(4-(aminomethyl)-1-oxo-1,2-dihydrophthalazin-6-yl)-1-methyl-1H-pyrazol-5-yl)-4-methyl-1-naphthonitrile] |  |  |  |  |  | < 6.00 |  |  | 5.88 | 7.42 | 8.52 |  |
| CCc1cc(-c2cnn(C)c2-c2ccc3ccccc3c2C#N)cc2c(CN)n[nH]c(=O)c12 [Example 15-1, 2-[4-[4-(aminomethyl)-8-ethyl-1-oxo-2H-phthalazin-6-yl]-2-methyl-pyrazol-3-yl]naphthalene-1-carbonitrile] |  |  |  |  |  | < 6.00 |  |  | 5.81 | 7.29 | 7.66 |  |
